Entries after “also recorded” stand apart in the source; their conditions may differ.

A short description of test [1]: Sensory test by continuous administration of D-psicose in humans (interview). Format: in vivo. As to conditions: for Changes: Body became easier to move (number of subjects) / Changes: Body felt lighter (number of subjects) / Changes: Body felt warmer (number of subjects) / Changes: Felt better (number of subjects) / Changes: Felt less fatigue (number of subjects) / Changes: No change (number of subjects): 5 healthy humans, once a day for 2 weeks, sample A = D-psicose 1.0 g, B = 2.5 g, C = 5.0 g. On the procedure: The test was conducted for 5 healthy individuals with no smoking habit (average age of 35.0; 3 males and 2 females). Prior to the experiment, the subjects were fully informed of the experiment contents in line with the guidelines of the Declaration of Helsinki, and the experiment was conducted with the informed consent of all subjects. The subjects were each asked to continuously take sample A (D-psicose, 1.0 g), once a day for 2 weeks. The subjects were then interviewed to see if there was any physical changes. After 1 week, the same subjects were continuously given sample B (D-psicose, 2.5 g) for 2 weeks in the same manner as for sample A, and were interviewed again. The same procedure was repeated after 1 week by continuously giving sample C (D-psicose, 5.0 g) to the same subjects, followed by an interview.

A short description of test [2]: Metabolism test by single administration of D-psicose in humans (indirect calorimetry of breath). It is filed as in vivo. The method, then:
Effects of single administration of D-psicose on energy expenditure, carbohydrate combustion, and lipid combustion were examined in humans. Energy metabolism was calculated by indirect calorimetry from measurements of subjects' breath (oxygen consumption and carbon dioxide discharge). The test was conducted by a single-blinded crossover study of two groups of 6 healthy individuals with no smoking habit (average age of 34.8; 3 males and 3 females; average BMI 21.4 kg/m^2). Prior to the experiment, the subjects were fully informed of the experiment contents in line with the guidelines of the Declaration of Helsinki, and the experiment was conducted with the informed consent of all subjects. The subjects were fasted for 12 hours before starting the test, and were each given a test solution (150 ml) prepared by adding 5 g of D-psicose, or a test solution (150 ml) prepared by adding 10 mg of high sweetener aspartame to provide the same sweetness as control food. The concentration of the test solution was 3.3% for the D-psicose group, and 0.005% for the aspartame group. After giving the test solution, the subjects were given breakfast (hamburg steak with rice; total calorie: 571 kcal; protein 13.4%, lipid 25.3%, carbohydrate 61.3%). After the breakfast, the subjects were rested on the bed for 20 min in the resting supine position to acclimate to the environment, and the breath was measured with an Aero Monitor AE-310S (Minato Medical Science) connected to a breathing hood. The measurement was ended after 4 hours from the breakfast. During the measurement, the oxygen consumption and the carbon dioxide discharge of each subject were recorded every minute, and energy expenditure, carbohydrate combustion, and lipid combustion were calculated from the measured values using the Elwyn energy equation. Throughout the breath measurement, the subjects were rested on the bed in the resting supine position, and were kept awake and fasted. The results were divided by subject ‘ s body weights, and were represented as mean values and standard deviation. […]

Test [3] can be described thus: Metabolism test by single oral administration of D-psicose in rats (indirect calorimetry). As to conditions: glucose+fructose+psicose (+Psi group) vs glucose+fructose (-Psi group), mean value every 12 minutes, FIG. 1. It is filed as in vivo, male Sprague-Dawley rats. The text has this: Effects of single oral administration of D-psicose on energy metabolism were examined using male Sprague-Dawley rats (7 weeks of age; purchased from CLEA Japan). The rats were preliminarily maintained for 1 week with a commercially available solid feed (CE-2; CLEA Japan), and were divided into 3 groups so as to be uniform in body weight upon measuring the body weight (each group contained eight rats).
The rats were individually put in a cage of a respiratory metabolism measurement system for small animals MK-5000 (Muromachi Kikai Co., Ltd.) at 16 o'clock on the day before a calorimetric test. The rats were measured by indirect calorimetry, and acclimated in the dark without food (dark period).
The rats were placed under a light at 10 o'clock next morning (light period). […] The solution concentrations are different to match total energy amounts. […] For the rest of the experiment, the rats were allowed access to only purified water, and the calorific value was continuously measured until 10 o'clock next day at 23° C. under light.
Resting energy metabolism (resting energy expenditure; hereinafter, “REE”, kcal/min) was calculated by using the Weir equation, and the result was divided by body weight (hereinafter, “BW”, in kg). The mean of measured values from 12 min to 60 min before the administration was regarded as a value at hour 0, and amounts of change were calculated over time. […]

The nature of test [4]: Metabolism test by long-term administration of D-psicose in rats (hourly energy expenditure). It is filed as in vivo, male Wistar rats. As to conditions: feed with 50.0 g/kg D-psicose + sucrose vs sucrose group, after 5 to 7 weeks, at hour 11 in the light period and hour 5 and 6 in the dark period, FIG. 2. The source says:
Effects of long-term administration of D-psicose on energy metabolism were examined using male Wistar rats (3 weeks of age; purchased from Japan SLC). The rats were preliminarily maintained for 1 week with a commercially available powder feed (product name MF; Oriental Yeast Co., Ltd.), and were divided into 2 groups so as to be uniform in body weight upon measuring the body weight (each group contained eight rats). The two groups are a sucrose administered group, and a sucrose+D-psicose administered group.
The two groups of rats were allowed free access to experiment feed (Table 2) and water, and maintained under specific conditions (temperature 22±1° C., humidity 58±2%, light period 8:00 to 20:00, dark period 20:00 to 8:00 next morning). The energy metabolism was measured 5 to 7 weeks after the experiment feed was given. […] The rat breath and the room air were collected into a Douglas bag (Fukuda Sangyo) at 1-hour intervals, and the oxygen and carbon dioxide concentrations were measured with a gas concentration analyzers G-102 and LX-710 (Iijima Electronics Corporation) for 24 hours. The amounts of oxygen consumed by the rat, and the amount of generated carbon dioxide were calculated from the oxygen concentration and the carbon dioxide concentration in the breath, and the oxygen concentration and the carbon dioxide concentration in room air. […]

Test [5] is described as follows: Human tests, single D-psicose administration with pure carbohydrate food, energy expenditure. Format: in vivo. As to conditions: humans.
Where [6] appears, read: 5 g D-psicose immediately before lipid-containing breakfast vs aspartame control, 20 minutes to 4 hours from breakfast, FIG. 3.

For the compound `O=C(CO)[C@H](O)[C@H](O)[C@H](O)CO` [C, D-psicose], in test [1], the “Changes: Body became easier to move (number of subjects)” value (“Changes: Body became easier to move” for short) came out at 3, the “Changes: Body felt lighter (number of subjects)” value (from here on “Changes: Body felt lighter”) was determined as 5, the “Changes: Body felt warmer (number of subjects)” value (“Changes: Body felt warmer” for short) was found to be 5 and the “Changes: Felt better (number of subjects)” value (“Changes: Felt better” below) is on record as 2. Moreover, in test [1], the “Changes: Felt less fatigue (number of subjects)” value (from here on “Changes: Felt less fatigue”) stood at 2 and the “Changes: No change (number of subjects)” value worked out at 0.

As to `O=C(CO)[C@H](O)[C@H](O)[C@H](O)CO` [D-psicose], in test [2] (setting [6]), the “energy expenditure (REE) per body weight” value is “significantly increased” and the “lipid combustion (FEE) per body weight” value is on record as “significantly increased”. Besides, the “energy metabolism result at lower dose” value in test [2] (single D-psicose dose 2.4 g) is given as “did not show any difference”. In test [1] (humans, continuous intake of 2.5 g or more of D-psicose for 2 weeks), the “physical changes reported in interview” value was “The subjects all experienced some changes; also recorded: increase or improve body temperature and other sensations”. In addition, the “AREE/BW (change of resting energy expenditure per body weight, water group subtracted)” value in test [3] is “no significant difference”. For the same compound, the “hourly energy expenditure per measured rat weight” value in test [4] was “significantly higher”. Further, in test [5], the “effect on energy expenditure” value was “did not have effect on energy expenditure”.

Turning to `O=C(CO)[C@H](O)[C@H](O)[C@H](O)CO` [B, D-psicose], in test [1], the “Changes: Body became easier to move” value came out at 2, the “Changes: Body felt lighter” value worked out at 3, the “Changes: Body felt warmer” value is on record as 3 and the “Changes: Felt better” value is recorded as 2. In test [1], the “Changes: Felt less fatigue” value worked out at 2 and the “Changes: No change (number of subjects)” value is 0.

For `O=C(CO)[C@H](O)[C@H](O)[C@H](O)CO` [A, D-psicose], in test [1], the “Changes: Body became easier to move” value is listed as 1, the “Changes: Body felt lighter” value is on record as 1, the “Changes: Body felt warmer” value is recorded as 1 and the “Changes: Felt better” value was 1. In test [1], the “Changes: Felt less fatigue” value turned out to be 1 and the “Changes: No change (number of subjects)” value amounted to 4. The “interview result on repeat test” value in test [1] (humans, sample A (D-psicose 1.0 g) again for 2 weeks, 1 week after testing with sample C) is given as “produced the same result”.

The record behind these values is patent US20160151305A1, “AGENT OR METHOD FOR TREATEMENT AND/OR PREVENTION OF ACCELERATED ENERGY EXPENDITURE AND/OR DIMINISHED ENERGY EXPENDITURE FUNCTIONALITY” (MATSUTANI CHEMICAL INDUSTRY CO., LTD., priority 2013, published 2016).
